# Assays:
# urinary reflex = assay: Supression of urinary reflex (bladder balloon, intraduodenal administration); type: in vivo, male Wister rats; conditions: for ED50: Rattus norvegicus, 50% effective dose, suppression of urinary reflex by more than 50%, up and down method, anesthetized male Wister rats, via duodenum, read-out: ID50 (the source's name); for Ratio of Effect: from ID50, Effect of Reference (Reference 1) defined as 1.00
# Method: According to the method of Kaseda et al. (Rinsho Seiri, 5, 540 (1975)), male Wister rats, weighing approximately 300 g and fasted for 15 to 20 hours prior to experiments, were anesthetized by intraperitoneal injection of 500 mg/Kg of urethane and 50 mg/Kg of α-chloralose, and fixed to a supine position. Then the lower abdomen was opened through a midline incision to expose the bladder, and a balloon (1.5 to 2.0 cm^3) was inserted into the urinary bladder via small incision in the base thereof. The change of inner pressure is recorded via pressure transducer. The urinary reflex was induced by elevating the inner pressure to 10 to 20 cm H2 O. Urine was excreted from the incision of the bladder, where balloon was inserted.
# The test compounds were given through polyethylene tube inserted into duodenum via an incision in the fundus.
# Mean value of contraction according to the urinary reflex appeared during ten minutes before the administration of the compounds, and at 15, 30, 45 and 60 minutes thereafter, have been investigated for the determination of the effect of the present compounds. The mean value suppressed by more than 50% compared to the initial value has been estimated as effect. ID50 (50% effective dose) was obtained by up and down method.
# in vitro = in vitro ADME, male Wister rats; conditions: rat, pH 6; for Ratio of Effect (T 1/2): 50 uM; for half-life at 50 µM: small intestinal mucosa homogenate
# Method: (2) Stability in acidic medium (corresponding to artificial small intestinal juice)
# After sacrificing male Wister rats (weighing approximately 300 g), small intestine was taken out and small intestinal mucous membrane was scraped off, and 20 ml of 0.1M phosphate buffer (pH 6.00) were added per 0.5 g of small intestinal mucous membrane (wet weight) to give 2.5% of homogenate.
# Test compound was dissolved in the homogenate to give definite concentration (50 uM). With shaking of the obtained mixture at 37° C., sampling was carried out from time to time, and the content of each compound was quantitatively measured by analyzing peak height of each compound by a reversed-phase high performance liquid chromatography. The half-life time of each compound in acidic medium (corresponding to artificial small intestinal juice, pH 6.0) was measured from a graph indicating content change of each compound against time.
# The compounds of the present invention and flavoxate (Reference 1) should be absorbed, after p.o. administation, in the small intestine to show medical effect. Therefore, the stability of the compounds against the hydrolyzation according to the nonspecific esterase contained in small intestinal mucous membrane is very important.
Structure (SMILES),Ratio of Effect (T 1/2) (in vitro),half-life at 50 µM (in vitro),ED50 (urinary reflex),Ratio of Effect (urinary reflex)
CCN(CC)CCNC(=O)c1cccc2c(=O)c(C)c(-c3ccccc3)oc12 [Compound 1],1066.1,27.1 days,36.7 mg/kg,7.42
CCN(CC)CCN(C)C(=O)c1cccc2c(=O)c(C)c(-c3ccccc3)oc12 [Compound 3],252.1,6.41 days,46.7 mg/kg,5.83
CCN(CC)CCNC(=O)c1cccc2c(=O)c(C)c(-c3ccc(OC)cc3)oc12 [Compound 5],1177.4,29.9 days,93.3 mg/kg,2.92
"CCN(CC)CCOC(=O)c1cccc2c(=O)c(C)c(-c3ccccc3)oc12 [Reference 2, reference compound]",2.3,0.0579 days,325 mg/kg,0.84
"Cc1c(-c2ccccc2)oc2c(C(=O)O)cccc2c1=O [Reference 3, reference compound]",,,308 mg/kg,0.89

# Continued, in another order:
Ratio of Effect (T 1/2) (in vitro),half-life at 50 µM (in vitro),Structure (SMILES),ED50 (urinary reflex),Ratio of Effect (urinary reflex)
475.4,12.1 days,Cc1c(-c2ccccc2)oc2c(C(=O)NCCN3CCCCC3)cccc2c1=O [Compound 2],26.8 mg/kg,10.16
1276.9,32.5 days,Cc1c(-c2ccccc2)oc2c(C(=O)NCC(C)N3CCCCC3)cccc2c1=O (stereo not drawn) [Compound 4],46.7 mg/kg,5.83
1.0,0.0254 days,"Cc1c(-c2ccccc2)oc2c(C(=O)OCCN3CCCCC3)cccc2c1=O [Reference 1, flavoxate, reference compound]",272 mg/kg,1.00

# From patent US4525356A, “N-substituted flavone-8-carboxamides” (Hokuriku Pharmaceutical Co., Ltd., priority 1982, dated 1985)
